From publication PMC9961652 (International Journal of Molecular Sciences, 2023)

How the values were obtained:
myosin light chain (MLC) = assay: Phosphorylation of myosin light chain (p-MLC), Western blot in collagen-stimulated platelets; assay type: cell-based, human; details: different concentrations of R-G04 or S-G04; collagen 1 µg/mL
Method: (A,B) Washed human platelets were incubated with collagen (1 µg/mL) for 4 min, and the levels of RhoA-GTP formation were quantified with a GST-Rhotekin effector pull-down assay. The platelets were pre-incubated with 20 µM UC-177618, UC-177619, UC-177628, UC-177629, […], or […] for 2 min before being stimulated with collagen. The addition of ice-cold lysis buffer terminated the reaction. […] Relative amounts of the GTP-bound form of RhoA were quantified with densitometry measurements of total RhoA (T-RhoA) and normalized to untreated platelets. […] The samples were processed for Western blotting and probed for MLC and p-MLC, and phosphorylation was quantified by measuring the densitometry of total MLC (T-MLC). The differences between DMSO- and Rhosin-related compounds were analyzed with t-test, and the results are shown as means ± SDs of three independent experiments. […]
A volume of 250 µL of washed human platelets (2.5 × 10^8/mL) was pre-warmed to 37 °C along with the compounds or DMSO (0.1%) for 2 min before being stimulated with collagen (1 µg/mL) for 4 min. The reactions were terminated by adding 4x Laemmli buffer, and phosphorylated MLC protein was detected with Western blotting as previously reported. Phosphorylation was quantified by measuring the densitometry.

RhoA = system: RhoA; design: method as in PMID 22726684, PMID 22956131; details: cited from earlier work
[1] = Pharmacokinetic profile (unpublished data)
RhoA, Rac1 and Cdc42 = system: RhoA, Rac1 and Cdc42; design: method as in PMID 22726684, PMID 27681226; details: cited from earlier work
washed human platelets = assay: Wash-out reversibility of inhibition of collagen-induced platelet aggregation; assay type: cell-based
Method: The reversible inhibition of Rhosin in collagen-induced platelet aggregation was assessed with similar wash-out experiments, and this reversible nature of Rhosin makes it a valuable antiplatelet drug candidate (Supporting Information Figure S4A,B). After confirming the structures of the above six active analogs, similar wash-out experiments were performed to compare the reversible function of the active analogs with Rhosin reversibility.

| Structure (SMILES) | phosphorylation of the MLC (myosin light chain (MLC)) | affinity of binding to the Trp58 region of the RhoA surface (RhoA) | pharmacokinetic profile [1] | specificity of inhibition of Rho GTPase activation (RhoA, Rac1 and Cdc42) | reversibility of inhibitory effect after wash-out (washed human platelets) |
| --- | --- | --- | --- | --- | --- |
| N[C@H](Cc1c[nH]c2ccccc12)C(=O)N/N=C/c1ccc2nccnc2c1 [R-G04] | inhibited the downstream phosphorylation of the MLC | micromolar affinity | poor pharmacokinetic profile | specifically inhibits the activation of RhoA but not that of Rac1 and Cdc42 | reversible |
| N[C@@H](Cc1c[nH]c2ccccc12)C(=O)N/N=C/c1ccc2nccnc2c1 [S-G04] | inhibited the downstream phosphorylation of the MLC | – | – | – | – |
